In BigSolDB 2.1:

O=C1NC(=O)c2cc([N+](=O)[O-])ccc21
Settings | solubility (mole fraction)
in 1,4-dioxane, 283.15 K | 0.0228
in 1,4-dioxane, 285.65 K | 0.0238
in 1,4-dioxane, 288.15 K | 0.0249
in 1,4-dioxane, 293.15 K | 0.0271
in 1,4-dioxane, 295.65 K | 0.0282
in 1,4-dioxane, 298.15 K | 0.0295
in 1,4-dioxane, 303.15 K | 0.0318
in 1,4-dioxane, 305.65 K | 0.0331
in 1,4-dioxane, 308.15 K | 0.0345
in 1,4-dioxane, 313.15 K | 0.0371
in 1,4-dioxane, 315.65 K | 0.0384
in 1,4-dioxane, 318.15 K | 0.0399
in 1,4-dioxane, 323.15 K | 0.0425
in 2-butanone, 273.15 K | 0.0161
in 2-butanone, 275.65 K | 0.0169
in 2-butanone, 278.15 K | 0.0177
in 2-butanone, 283.15 K | 0.0195
in 2-butanone, 285.65 K | 0.0205
in 2-butanone, 288.15 K | 0.0215
in 2-butanone, 293.15 K | 0.0234
in 2-butanone, 295.65 K | 0.0244
in 2-butanone, 298.15 K | 0.0256
in 2-butanone, 303.15 K | 0.0279
in 2-butanone, 305.65 K | 0.029
in 2-butanone, 308.15 K | 0.0302
in 2-butanone, 313.15 K | 0.0327
in 2-butanone, 315.65 K | 0.0339
in 2-butanone, 318.15 K | 0.0353
in 2-butanone, 323.15 K | 0.038
in DMF, 273.15 K | 0.0357
in DMF, 275.65 K | 0.039
in DMF, 278.15 K | 0.0425
in DMF, 283.15 K | 0.0497
in DMF, 285.65 K | 0.0535
in DMF, 288.15 K | 0.0586
in DMF, 293.15 K | 0.0682
in DMF, 295.65 K | 0.0732
in DMF, 298.15 K | 0.0789
in DMF, 303.15 K | 0.0912
in DMF, 305.65 K | 0.0976
in DMF, 308.15 K | 0.104
in DMF, 313.15 K | 0.12
in DMF, 315.65 K | 0.128
in DMF, 318.15 K | 0.137
in DMF, 323.15 K | 0.155
in acetone, 273.15 K | 0.0175
in acetone, 275.65 K | 0.0185
in acetone, 278.15 K | 0.0193
in acetone, 283.15 K | 0.0211
in acetone, 285.65 K | 0.022
in acetone, 288.15 K | 0.023
in acetone, 293.15 K | 0.025
in acetone, 295.65 K | 0.0261
in acetone, 298.15 K | 0.0271
in acetone, 303.15 K | 0.0293
in acetone, 305.65 K | 0.0305
in acetone, 308.15 K | 0.0317
in acetone, 313.15 K | 0.034
in acetone, 315.65 K | 0.0353
in acetone, 318.15 K | 0.0366
in acetone, 323.15 K | 0.0392
in acetonitrile, 273.15 K | 0.00359
in acetonitrile, 275.65 K | 0.00382
in acetonitrile, 278.15 K | 0.00403
in acetonitrile, 283.15 K | 0.00449
in acetonitrile, 285.65 K | 0.00474
in acetonitrile, 288.15 K | 0.00503
in acetonitrile, 293.15 K | 0.00555
in acetonitrile, 295.65 K | 0.00584
in acetonitrile, 298.15 K | 0.00618
in acetonitrile, 303.15 K | 0.00679
in acetonitrile, 305.65 K | 0.00709
in acetonitrile, 308.15 K | 0.00749
in acetonitrile, 313.15 K | 0.00822
in acetonitrile, 315.65 K | 0.00858
in acetonitrile, 318.15 K | 0.00894
in acetonitrile, 323.15 K | 0.00976
in benzyl alcohol, 273.15 K | 0.0134
in benzyl alcohol, 275.65 K | 0.0143
in benzyl alcohol, 278.15 K | 0.0154
in benzyl alcohol, 283.15 K | 0.0175
in benzyl alcohol, 285.65 K | 0.0188
in benzyl alcohol, 288.15 K | 0.0202
in benzyl alcohol, 293.15 K | 0.023
in benzyl alcohol, 295.65 K | 0.0245
in benzyl alcohol, 298.15 K | 0.0261
in benzyl alcohol, 303.15 K | 0.0294
in benzyl alcohol, 305.65 K | 0.0312
in benzyl alcohol, 308.15 K | 0.0331
in benzyl alcohol, 313.15 K | 0.0372
in benzyl alcohol, 315.65 K | 0.0393
in benzyl alcohol, 318.15 K | 0.0417
in benzyl alcohol, 323.15 K | 0.0466
in chloroform, 273.15 K | 0.000535
in chloroform, 275.65 K | 0.000577
in chloroform, 278.15 K | 0.000625
in chloroform, 283.15 K | 0.000722
in chloroform, 285.65 K | 0.000775
in chloroform, 288.15 K | 0.000837
in chloroform, 293.15 K | 0.000959
in chloroform, 295.65 K | 0.00102
in chloroform, 298.15 K | 0.00109
in chloroform, 303.15 K | 0.00124
in chloroform, 305.65 K | 0.00131
in chloroform, 308.15 K | 0.0014
in chloroform, 313.15 K | 0.0016
in chloroform, 315.65 K | 0.00169
in chloroform, 318.15 K | 0.00178
in chloroform, 323.15 K | 0.00201
in cyclohexanone, 273.15 K | 0.0295
in cyclohexanone, 275.65 K | 0.0307
in cyclohexanone, 278.15 K | 0.0321
in cyclohexanone, 283.15 K | 0.0352
in cyclohexanone, 285.65 K | 0.0367
in cyclohexanone, 288.15 K | 0.0387
in cyclohexanone, 293.15 K | 0.0422
in cyclohexanone, 295.65 K | 0.044
in cyclohexanone, 298.15 K | 0.0461
in cyclohexanone, 303.15 K | 0.0506
in cyclohexanone, 305.65 K | 0.0527
in cyclohexanone, 308.15 K | 0.0552
in cyclohexanone, 313.15 K | 0.0604
in cyclohexanone, 315.65 K | 0.0629
in cyclohexanone, 318.15 K | 0.0655
in cyclohexanone, 323.15 K | 0.0708
in ethanol, 273.15 K | 0.000713
in ethanol, 275.65 K | 0.000799
in ethanol, 278.15 K | 0.000897
in ethanol, 283.15 K | 0.00112
in ethanol, 285.65 K | 0.00123
in ethanol, 288.15 K | 0.00137
in ethanol, 293.15 K | 0.00166
in ethanol, 295.65 K | 0.00183
in ethanol, 298.15 K | 0.00201
in ethanol, 303.15 K | 0.00244
in ethanol, 305.65 K | 0.00265
in ethanol, 308.15 K | 0.00288
in ethanol, 313.15 K | 0.00347
in ethanol, 315.65 K | 0.00378
in ethanol, 318.15 K | 0.00405
in ethanol, 323.15 K | 0.00479
in ethyl acetate, 273.15 K | 0.00919
in ethyl acetate, 275.65 K | 0.00981
in ethyl acetate, 278.15 K | 0.0104
in ethyl acetate, 283.15 K | 0.0117
in ethyl acetate, 285.65 K | 0.0123
in ethyl acetate, 288.15 K | 0.0131
in ethyl acetate, 293.15 K | 0.0146
in ethyl acetate, 295.65 K | 0.0155
in ethyl acetate, 298.15 K | 0.0163
in ethyl acetate, 303.15 K | 0.0181
in ethyl acetate, 305.65 K | 0.019
in ethyl acetate, 308.15 K | 0.02
in ethyl acetate, 313.15 K | 0.022
in ethyl acetate, 315.65 K | 0.0231
in ethyl acetate, 318.15 K | 0.0243
in ethyl acetate, 323.15 K | 0.0266
in isopropanol, 273.15 K | 0.000586
in isopropanol, 275.65 K | 0.000643
in isopropanol, 278.15 K | 0.000741
in isopropanol, 283.15 K | 0.000937
in isopropanol, 285.65 K | 0.00104
in isopropanol, 288.15 K | 0.00115
in isopropanol, 293.15 K | 0.00143
in isopropanol, 295.65 K | 0.00159
in isopropanol, 298.15 K | 0.00175
in isopropanol, 303.15 K | 0.00214
in isopropanol, 305.65 K | 0.00234
in isopropanol, 308.15 K | 0.00257
in isopropanol, 313.15 K | 0.00311
in isopropanol, 315.65 K | 0.0034
in isopropanol, 318.15 K | 0.0037
in isopropanol, 323.15 K | 0.00443
in methanol, 273.15 K | 0.0014
in methanol, 275.65 K | 0.00151
in methanol, 278.15 K | 0.00167
in methanol, 283.15 K | 0.00196
in methanol, 285.65 K | 0.00212
in methanol, 288.15 K | 0.00233
in methanol, 293.15 K | 0.00272
in methanol, 295.65 K | 0.00295
in methanol, 298.15 K | 0.00318
in methanol, 303.15 K | 0.00372
in methanol, 305.65 K | 0.00397
in methanol, 308.15 K | 0.00427
in methanol, 313.15 K | 0.00493
in methanol, 315.65 K | 0.00527
in methanol, 318.15 K | 0.00566
in methanol, 323.15 K | 0.00646
